Test results reported in ChEMBL document CHEMBL4699477, “Tricyclic sulfones as potent, selective and efficacious RORγt inverse agonists - Exploring C6 and C8 SAR using late-stage functionalization” (Bioorg Med Chem Lett, 2020).
Converted amounts (≈) assume the structure as drawn.

What was measured:
[1] = target: Cytochrome P450 2D6 (Homo sapiens, UniProt P10635); experiment: Inhibition of recombinant CYP2D6 (unknown origin); assay type: ADME
[2] = Clearance in dog at 1 mg/kg, iv; assay type: ADME, organism-based, Canis lupus familiaris; conditions: in vivo
[3] = Cmax in BALB/c mouse at 4 mg/kg, po; assay type: ADME, organism-based; design: route oral, dose 4 mg/kg; conditions: in vivo
[4] = Solubility of compound at pH 7.4; assay type: physicochemical; conditions: buffer
[5] = Half life in rat at 2 mg/kg, iv; assay type: ADME, organism-based; conditions: in vivo
[6] = target: T1, Oxysterols receptor LXR-beta (Homo sapiens, UniProt P55055); experiment: Inverse agonist activity of LXRbeta (unknown origin)
T1 sequence (P55055 whole entry): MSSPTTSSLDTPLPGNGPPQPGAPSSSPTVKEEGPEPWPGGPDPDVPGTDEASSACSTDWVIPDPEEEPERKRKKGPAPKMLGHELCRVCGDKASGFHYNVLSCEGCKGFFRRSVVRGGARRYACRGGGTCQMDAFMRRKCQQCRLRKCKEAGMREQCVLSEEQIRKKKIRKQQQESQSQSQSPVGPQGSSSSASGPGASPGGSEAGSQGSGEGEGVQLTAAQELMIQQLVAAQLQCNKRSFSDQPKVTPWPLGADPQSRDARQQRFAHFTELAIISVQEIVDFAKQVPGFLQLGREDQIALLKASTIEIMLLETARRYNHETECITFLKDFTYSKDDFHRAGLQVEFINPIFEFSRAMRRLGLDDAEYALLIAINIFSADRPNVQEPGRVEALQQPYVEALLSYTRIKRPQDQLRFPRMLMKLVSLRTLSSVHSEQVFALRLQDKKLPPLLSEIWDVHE

[7] = target: Voltage-gated inwardly rectifying potassium channel KCNH2 (Homo sapiens, UniProt Q12809); experiment: Inhibition of human ERG by patch clamp assay
[8] = Half life in dog at 1 mg/kg, iv; assay type: ADME, organism-based, Canis lupus familiaris; conditions: in vivo
[9] = Half life in BALB/c mouse at 2 mg/kg, iv; assay type: ADME, organism-based; conditions: in vivo
[10] = target: Cytochrome P450 3A4 (Homo sapiens, UniProt P08684); experiment: Inhibition of recombinant CYP3A4 (unknown origin); assay type: ADME
[11] = Volume of distribution at steady state in cynomolgus monkey at 1 mg/kg, iv; assay type: ADME, organism-based, Macaca fascicularis; conditions: in vivo, read-out: Vdss
[12] = target: T2, Cytochrome P450 1A2 (Homo sapiens, UniProt P05177); experiment: Inhibition of recombinant CYP1A2 (unknown origin); assay type: ADME
T2 sequence (P05177 whole entry): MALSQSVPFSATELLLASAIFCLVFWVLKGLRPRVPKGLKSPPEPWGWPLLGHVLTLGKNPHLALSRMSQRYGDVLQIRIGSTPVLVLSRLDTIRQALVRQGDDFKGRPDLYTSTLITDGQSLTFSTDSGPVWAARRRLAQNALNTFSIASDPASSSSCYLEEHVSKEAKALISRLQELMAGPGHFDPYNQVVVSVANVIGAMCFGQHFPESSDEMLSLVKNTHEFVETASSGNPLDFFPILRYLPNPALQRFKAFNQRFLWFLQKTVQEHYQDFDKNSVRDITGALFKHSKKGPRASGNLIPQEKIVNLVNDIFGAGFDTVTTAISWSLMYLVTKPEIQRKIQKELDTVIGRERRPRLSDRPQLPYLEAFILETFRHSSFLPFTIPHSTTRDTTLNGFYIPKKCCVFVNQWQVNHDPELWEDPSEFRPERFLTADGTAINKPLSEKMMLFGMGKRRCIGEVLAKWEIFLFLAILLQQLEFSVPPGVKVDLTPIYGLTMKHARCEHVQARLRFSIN

[13] = Permeability in human Caco-2 cells; assay type: ADME, cell-based; conditions: read-out: permeability
[14] = target: T3, Nuclear receptor ROR-beta (Homo sapiens, UniProt Q92753); experiment: Inhibition of GAL4-fused RORbeta (unknown origin)
T3 sequence (Q92753 whole entry): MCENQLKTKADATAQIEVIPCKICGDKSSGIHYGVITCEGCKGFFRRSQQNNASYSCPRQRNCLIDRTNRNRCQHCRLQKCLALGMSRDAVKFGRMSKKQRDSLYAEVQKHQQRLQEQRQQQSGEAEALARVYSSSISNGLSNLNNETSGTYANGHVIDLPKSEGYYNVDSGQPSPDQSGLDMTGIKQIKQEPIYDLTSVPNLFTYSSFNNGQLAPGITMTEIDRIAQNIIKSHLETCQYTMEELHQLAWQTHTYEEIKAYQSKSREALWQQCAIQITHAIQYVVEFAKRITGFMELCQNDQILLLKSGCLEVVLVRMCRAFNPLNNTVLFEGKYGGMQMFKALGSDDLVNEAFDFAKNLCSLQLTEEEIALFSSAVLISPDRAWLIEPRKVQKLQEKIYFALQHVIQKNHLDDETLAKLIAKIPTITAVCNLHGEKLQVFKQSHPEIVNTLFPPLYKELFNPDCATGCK

[15] = Oral bioavailability in cynomolgus monkey at 2 mg/kg; assay type: ADME, organism-based, Macaca fascicularis; conditions: in vivo
[16] = Oral bioavailability in dog at 2 mg/kg; assay type: ADME, organism-based, Canis lupus familiaris; conditions: in vivo
[17] = Cmax in rat at 4 mg/kg, po; assay type: ADME, organism-based; design: route oral, dose 4 mg/kg; conditions: in vivo
[18] = Solubility of compound at pH 1; assay type: physicochemical; conditions: buffer
[19] = target: Cytochrome P450 2C9 (Homo sapiens, UniProt P11712); experiment: Inhibition of recombinant CYP2C9 (unknown origin); assay type: ADME
[20] = Metabolic stability in human liver microsomes assessed as half life; assay type: ADME, Microsome
[21] = Total AUC in dog at 2 mg/kg, po; assay type: ADME, organism-based, Canis lupus familiaris; design: time AUCmax, route oral, dose 2 mg/kg; conditions: in vivo
[22] = Volume of distribution at steady state in dog at 1 mg/kg, iv; assay type: ADME, organism-based, Canis lupus familiaris; conditions: in vivo, read-out: Vdss
[23] = Solubility of compound at pH 6.5; assay type: physicochemical; conditions: buffer
[24] = Total AUC in rat at 4 mg/kg, po; assay type: ADME, organism-based; design: time AUCmax, route oral, dose 4 mg/kg; conditions: in vivo
[25] = Total AUC in rat at 2 mg/kg, iv; assay type: ADME, organism-based; design: time AUCmax, route intravenous, dose 2 mg/kg; conditions: in vivo
[26] = Fraction unbound in mouse plasma; assay type: ADME, cell-free
[27] = target: T4, Cytochrome P450 2C8 (Homo sapiens, UniProt P10632); experiment: Inhibition of recombinant CYP2C8 (unknown origin); assay type: ADME
T4 sequence (P10632 whole entry): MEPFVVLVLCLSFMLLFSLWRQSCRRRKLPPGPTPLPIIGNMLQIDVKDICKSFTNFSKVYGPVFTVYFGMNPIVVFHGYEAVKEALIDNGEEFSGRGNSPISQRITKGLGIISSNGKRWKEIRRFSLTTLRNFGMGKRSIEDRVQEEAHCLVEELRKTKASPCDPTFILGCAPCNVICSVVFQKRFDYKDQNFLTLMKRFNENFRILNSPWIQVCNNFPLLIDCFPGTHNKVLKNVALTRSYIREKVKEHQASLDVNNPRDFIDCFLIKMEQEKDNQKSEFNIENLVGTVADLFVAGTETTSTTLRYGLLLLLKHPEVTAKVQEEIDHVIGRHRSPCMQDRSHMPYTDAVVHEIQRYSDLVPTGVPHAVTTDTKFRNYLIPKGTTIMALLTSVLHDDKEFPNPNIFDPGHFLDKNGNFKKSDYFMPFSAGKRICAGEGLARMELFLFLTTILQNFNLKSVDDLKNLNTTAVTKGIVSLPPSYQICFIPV

[28] = Clearance in rat at 2 mg/kg, iv; assay type: ADME, organism-based; conditions: in vivo
[29] = Fraction unbound in human plasma; assay type: ADME, cell-free
[30] = Total AUC in dog at 1 mg/kg, iv; assay type: ADME, organism-based, Canis lupus familiaris; design: route intravenous, time AUCmax, dose 1 mg/kg; conditions: in vivo

Chain of Cytochrome P450 3A4 (P08684 whole entry): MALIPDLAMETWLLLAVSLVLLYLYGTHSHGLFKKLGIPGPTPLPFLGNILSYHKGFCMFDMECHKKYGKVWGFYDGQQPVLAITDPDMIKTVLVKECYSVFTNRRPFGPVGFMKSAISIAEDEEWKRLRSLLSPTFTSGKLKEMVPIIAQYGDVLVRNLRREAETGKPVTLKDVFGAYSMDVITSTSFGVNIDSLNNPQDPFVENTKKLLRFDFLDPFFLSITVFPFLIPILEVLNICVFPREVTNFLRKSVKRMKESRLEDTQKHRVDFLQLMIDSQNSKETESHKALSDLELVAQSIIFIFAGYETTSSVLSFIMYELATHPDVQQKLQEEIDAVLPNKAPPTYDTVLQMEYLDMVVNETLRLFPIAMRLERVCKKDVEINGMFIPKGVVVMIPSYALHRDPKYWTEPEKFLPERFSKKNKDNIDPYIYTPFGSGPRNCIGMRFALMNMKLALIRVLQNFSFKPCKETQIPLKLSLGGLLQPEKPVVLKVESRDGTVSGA
Chain of Cytochrome P450 2C9 (P11712 whole entry): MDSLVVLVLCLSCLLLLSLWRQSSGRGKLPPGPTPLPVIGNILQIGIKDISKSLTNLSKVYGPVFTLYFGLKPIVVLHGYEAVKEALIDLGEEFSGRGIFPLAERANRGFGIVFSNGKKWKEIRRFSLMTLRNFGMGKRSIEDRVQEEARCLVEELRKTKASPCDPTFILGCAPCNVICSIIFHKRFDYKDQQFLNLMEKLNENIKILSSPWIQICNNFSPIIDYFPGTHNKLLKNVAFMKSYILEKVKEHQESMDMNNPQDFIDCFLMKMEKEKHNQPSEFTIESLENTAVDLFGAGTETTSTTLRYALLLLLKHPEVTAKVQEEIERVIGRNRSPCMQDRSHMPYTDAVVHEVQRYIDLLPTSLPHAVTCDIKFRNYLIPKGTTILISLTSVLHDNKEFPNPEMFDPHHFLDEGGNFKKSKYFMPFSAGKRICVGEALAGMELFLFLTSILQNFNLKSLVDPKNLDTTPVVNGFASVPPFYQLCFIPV
Chain of Voltage-gated inwardly rectifying potassium channel KCNH2 (Q12809 whole entry): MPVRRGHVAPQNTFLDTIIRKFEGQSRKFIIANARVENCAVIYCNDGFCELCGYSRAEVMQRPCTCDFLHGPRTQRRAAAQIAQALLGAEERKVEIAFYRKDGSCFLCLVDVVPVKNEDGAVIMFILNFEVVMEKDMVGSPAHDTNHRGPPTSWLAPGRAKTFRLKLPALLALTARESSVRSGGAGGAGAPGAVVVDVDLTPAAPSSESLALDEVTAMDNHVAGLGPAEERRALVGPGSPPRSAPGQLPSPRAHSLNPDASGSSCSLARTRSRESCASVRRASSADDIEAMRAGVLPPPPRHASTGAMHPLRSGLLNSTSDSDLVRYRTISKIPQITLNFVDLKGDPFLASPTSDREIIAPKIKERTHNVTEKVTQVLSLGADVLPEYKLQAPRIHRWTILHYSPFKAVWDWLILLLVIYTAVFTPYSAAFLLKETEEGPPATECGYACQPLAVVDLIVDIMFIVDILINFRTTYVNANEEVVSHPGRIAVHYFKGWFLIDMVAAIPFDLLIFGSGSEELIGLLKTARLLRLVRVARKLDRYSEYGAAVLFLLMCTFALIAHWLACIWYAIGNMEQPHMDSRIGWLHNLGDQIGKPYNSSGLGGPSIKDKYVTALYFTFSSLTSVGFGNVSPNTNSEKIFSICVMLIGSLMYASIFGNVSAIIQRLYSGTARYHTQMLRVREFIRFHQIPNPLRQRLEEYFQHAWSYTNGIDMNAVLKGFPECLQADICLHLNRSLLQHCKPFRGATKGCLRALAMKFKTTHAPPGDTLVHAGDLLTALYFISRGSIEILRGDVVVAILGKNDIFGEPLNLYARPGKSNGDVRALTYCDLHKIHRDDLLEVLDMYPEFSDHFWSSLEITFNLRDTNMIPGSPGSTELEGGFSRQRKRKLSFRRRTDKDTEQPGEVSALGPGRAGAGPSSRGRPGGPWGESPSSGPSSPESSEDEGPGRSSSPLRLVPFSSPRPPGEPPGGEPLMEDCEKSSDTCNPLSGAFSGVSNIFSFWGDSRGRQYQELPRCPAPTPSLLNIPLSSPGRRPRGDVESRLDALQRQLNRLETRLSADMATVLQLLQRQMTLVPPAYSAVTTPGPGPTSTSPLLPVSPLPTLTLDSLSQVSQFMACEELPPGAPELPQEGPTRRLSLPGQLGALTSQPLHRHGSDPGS
Chain of Cytochrome P450 2D6 (P10635 whole entry): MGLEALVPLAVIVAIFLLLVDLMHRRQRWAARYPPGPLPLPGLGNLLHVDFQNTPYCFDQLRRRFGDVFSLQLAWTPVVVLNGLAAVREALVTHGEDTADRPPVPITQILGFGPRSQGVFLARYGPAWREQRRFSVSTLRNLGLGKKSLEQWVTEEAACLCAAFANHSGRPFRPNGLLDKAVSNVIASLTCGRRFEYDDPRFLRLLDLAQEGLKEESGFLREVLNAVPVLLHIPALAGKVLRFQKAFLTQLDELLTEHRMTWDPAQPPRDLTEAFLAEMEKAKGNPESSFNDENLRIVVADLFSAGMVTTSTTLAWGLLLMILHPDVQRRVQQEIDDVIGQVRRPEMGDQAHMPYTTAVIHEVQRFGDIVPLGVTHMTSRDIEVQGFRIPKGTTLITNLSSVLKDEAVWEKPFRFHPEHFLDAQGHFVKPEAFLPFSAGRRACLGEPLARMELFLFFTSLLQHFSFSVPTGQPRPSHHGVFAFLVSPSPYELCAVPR

C[C@H]1C[C@H](C(=O)O)CC[C@H]1C(=O)N1CC[C@@]2(S(=O)(=O)c3ccccc3)c3cc(F)c(C(F)(C(F)(F)F)C(F)(F)F)cc3CC[C@@H]12
IC50 [1]: > 20 µM
clearance [2]: 0.3 mL/min/kg
Cmax [3]: 4.6 µM
solubility [4]: 1600 µg/mL (≈ 2400 µM)
half-life [5]: 5.8 h
EC50 [6]: > 7.5 µM
IC50 [7]: 18 µM
half-life [8]: 28 h
half-life [9]: 7.7 h
IC50 [10]: > 20 µM
Vd [11]: 1.2 L/kg
IC50 [12]: > 20 µM
Papp [13]: 12 ×10⁻⁶ cm/s
EC50 [14]: > 10 µM
bioavailability [15]: 100%
bioavailability [16]: 90%
Cmax [17]: 4.1 µM
solubility [18]: 1.4 µg/mL (≈ 2.1 µM)
IC50 [19]: > 20 µM
half-life [20]: > 2 h
AUC [21]: 144 µM·h
Vd [22]: 0.7 L/kg
solubility [23]: 350 µg/mL (≈ 524 µM)
AUC [24]: 44 µM·h
AUC [25]: 20 µM·h
fraction unbound [26]: 0.016
IC50 [27]: 1.9 µM
clearance [28]: 2.6 mL/min/kg
fraction unbound [29]: 0.012
AUC [30]: 80 µM·h
